Test results published in US6559101B2, “N- (5, 7-dimethoxy [1, 2, 4] triazolo [1, 5-a] pyrimidin-2-yl) arylsulfonamide compounds and their use as herbicides” (Dow AgroSciences LLC, priority 2000, dated 2003).
One block for each molecule: values may come before it.

Experiments:
[1] = test system: pigweed (Amaranthus retroflexus); assay: Preemergence herbicidal activity; format: in vivo; conditions: scored after 3 weeks, 0 no injury, 100 complete kill or no germination
Outline: (§1)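 Compounds in acetone/DMSO (97:3) were diluted into water with 0.1% Tween 155 and sprayed onto the soil of freshly seeded pots, with a top rate of 4.48 kg/ha. Pots were kept in a greenhouse (~15 h light, 23-29 °C day, 22-28 °C night) for 3 weeks, then injury was rated visually against untreated pots (0-100%).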

[2] = test system: crabgrass (Digitaria sanguinalis); assay: Preemergence herbicidal activity; format: in vivo; conditions: scored after 3 weeks, 0 no injury, 100 complete kill or no germination
Outline: as §1

[3] = test system: barnyardgrass (Echinochloa crus-galli); assay: Preemergence herbicidal activity; format: in vivo; conditions: scored after 3 weeks, 0 no injury, 100 complete kill or no germination
Outline: as §1

[4] = test system: Rox orange sorghum (Sorghum bicolor); assay: Preemergence herbicidal activity; format: in vivo; conditions: scored after 3 weeks, 0 no injury, 100 complete kill or no germination
Outline: as §1

[5] = test system: lambsquarters (Chenopodium album); assay: Preemergence herbicidal activity; format: in vivo; conditions: scored after 3 weeks, 0 no injury, 100 complete kill or no germination
Outline: as §1

[6] = test system: wild poinsettia (Euphorbia heterophylla); assay: Preemergence herbicidal activity; format: in vivo; conditions: scored after 3 weeks, 0 no injury, 100 complete kill or no germination
Outline: as §1

[7] = test system: cocklebur (Xanthium strumarium); assay: Preemergence herbicidal activity; format: in vivo; conditions: scored after 3 weeks, 0 no injury, 100 complete kill or no germination
Outline: as §1

[8] = test system: velvetleaf (Abutilion theophrasti); assay: Preemergence herbicidal activity; format: in vivo; conditions: scored after 3 weeks, 0 no injury, 100 complete kill or no germination
Outline: as §1

[9] = test system: giant foxtail (Setaria faberi); assay: Preemergence herbicidal activity; format: in vivo; conditions: scored after 3 weeks, 0 no injury, 100 complete kill or no germination
Outline: as §1

[10] = test system: blackgrass (Alopecurus myosuroides); assay: Preemergence herbicidal activity; format: in vivo; conditions: scored after 3 weeks, 0 no injury, 100 complete kill or no germination
Outline: as §1

[11] = test system: morningglory (Ipomoea hederacea); assay: Preemergence herbicidal activity; format: in vivo; conditions: scored after 3 weeks, 0 no injury, 100 complete kill or no germination
Outline: as §1

wild oats (Avena fatua) [12] = assay: Preemergence herbicidal activity; format: in vivo; conditions: scored after 3 weeks, 0 no injury, 100 complete kill or no germination
Outline: as §1

[13] = test system: wild buckwheat (Polygonum convolvulus); assay: Postemergence herbicidal activity; format: in vivo; conditions: scored after 2 weeks, 0 no injury, 100 complete kill
Outline: (§2)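 Greenhouse-grown seedlings at first or second true leaf stage were sprayed to full coverage with compound in aqueous acetone/DMSO/isopropanol carrier with crop oil concentrate and surfactant; 1 ppm corresponds to approximately 1 g/ha. Injury versus untreated plants was scored visually after 2 weeks on a 0–100% scale (100 = complete kill).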

[14] = test system: pigweed (Amaranthus retroflexus); assay: Postemergence herbicidal activity; format: in vivo; conditions: scored after 2 weeks, 0 no injury, 100 complete kill
Outline: as §2

[15] = test system: Rox orange sorghum (Sorghum bicolor); assay: Postemergence herbicidal activity; format: in vivo; conditions: scored after 2 weeks, 0 no injury, 100 complete kill
Outline: as §2

[16] = test system: lambsquarters (Chenopodium album); assay: Postemergence herbicidal activity; format: in vivo; conditions: scored after 2 weeks, 0 no injury, 100 complete kill
Outline: as §2

viola (Viola tricolor) = assay: Postemergence herbicidal activity; format: in vivo; conditions: scored after 2 weeks, 0 no injury, 100 complete kill
Outline: as §2

[17] = test system: cocklebur (Xanthium strumarium); assay: Postemergence herbicidal activity; format: in vivo; conditions: scored after 2 weeks, 0 no injury, 100 complete kill
Outline: as §2

[18] = test system: velvetleaf (Abutilion theophrasti); assay: Postemergence herbicidal activity; format: in vivo; conditions: scored after 2 weeks, 0 no injury, 100 complete kill
Outline: as §2

[19] = test system: giant foxtail (Setaria faberi); assay: Postemergence herbicidal activity; format: in vivo; conditions: scored after 2 weeks, 0 no injury, 100 complete kill
Outline: as §2

[20] = test system: blackgrass (Alopecurus myosuroides); assay: Postemergence herbicidal activity; format: in vivo; conditions: scored after 2 weeks, 0 no injury, 100 complete kill
Outline: as §2

[21] = test system: morningglory (Ipomoea hederacea); assay: Postemergence herbicidal activity; format: in vivo; conditions: scored after 2 weeks, 0 no injury, 100 complete kill
Outline: as §2

[22] = test system: chickweed (Stellaria media); assay: Postemergence herbicidal activity; format: in vivo; conditions: scored after 2 weeks, 0 no injury, 100 complete kill
Outline: as §2

wild oats (Avena fatua) [23] = assay: Postemergence herbicidal activity; format: in vivo; conditions: scored after 2 weeks, 0 no injury, 100 complete kill
Outline: as §2

melting point: 211 to 213 °C
Compound: COc1cc(OC)n2nc(NS(=O)(=O)c3c(Cl)cccc3Cl)nc2n1 [Compound 1, N-(5,7-dimethoxy[1,2,4]triazolo-[1,5-a]pyrimidin-2-yl)-2,6-dichlorobenzene-sulfonamide]
Preemergence herbicidal activity AMARE ([1]; 17.5 g/Ha): 100%
Preemergence herbicidal activity DIGSA ([2]; 17.5 g/Ha): 98%
Preemergence herbicidal activity ECHCG ([3]; 17.5 g/Ha): 98%
Preemergence herbicidal activity SORBI ([4]; 17.5 g/Ha): 98%
Preemergence herbicidal activity CHEAL ([5]; 17.5 g/Ha): 98%
Preemergence herbicidal activity EPHHL ([6]; 17.5 g/Ha): 70%
Preemergence herbicidal activity XANST ([7]; 17.5 g/Ha): 100%
Preemergence herbicidal activity ABUTH ([8]; 17.5 g/Ha): 99%
Preemergence herbicidal activity SETFA ([9]; 17.5 g/Ha): 95%
Preemergence herbicidal activity ALOMY ([10]; 17.5 g/Ha): 100%
Preemergence herbicidal activity IPOHE ([11]; 17.5 g/Ha): 80%
Preemergence herbicidal activity AVEFA (wild oats (Avena fatua) [12]; 17.5 g/Ha): 100%
Postemergence herbicidal activity POLCO ([13]; 7.8 ppm): 95%
Postemergence herbicidal activity AMARE ([14]; 7.8 ppm): 90%
Postemergence herbicidal activity SORBI ([15]; 7.8 ppm): 90%
Postemergence herbicidal activity CHEAL ([16]; 7.8 ppm): 90%
Postemergence herbicidal activity VIOTR (viola (Viola tricolor); 7.8 ppm): 75%
Postemergence herbicidal activity XANST ([17]; 7.8 ppm): 85%
Postemergence herbicidal activity ABUTH ([18]; 7.8 ppm): 85%
Postemergence herbicidal activity SETFA ([19]; 7.8 ppm): 98%
Postemergence herbicidal activity ALOMY ([20]; 7.8 ppm): 90%
Postemergence herbicidal activity IPOHE ([21]; 7.8 ppm): 80%
Postemergence herbicidal activity STEME ([22]; 7.8 ppm): 95%
Postemergence herbicidal activity AVEFA (wild oats (Avena fatua) [23]; 7.8 ppm): 95%

Compound: COc1cc(OC)n2nc(NS(=O)(=O)c3c(C(F)(F)F)ccnc3F)nc2n1 [Compound 16]
Preemergence herbicidal activity AMARE ([1]; 140 g/Ha): 85%
Preemergence herbicidal activity DIGSA ([2]; 140 g/Ha): 0%
Preemergence herbicidal activity ECHCG ([3]; 140 g/Ha): 0%
Preemergence herbicidal activity SORBI ([4]; 140 g/Ha): 40%
Preemergence herbicidal activity CHEAL ([5]; 140 g/Ha): 20%
Preemergence herbicidal activity EPHHL ([6]; 140 g/Ha): 0%
Preemergence herbicidal activity XANST ([7]; 140 g/Ha): 40%
Preemergence herbicidal activity ABUTH ([8]; 140 g/Ha): 20%
Preemergence herbicidal activity SETFA ([9]; 140 g/Ha): 10%
Preemergence herbicidal activity ALOMY ([10]; 140 g/Ha): 40%
Preemergence herbicidal activity IPOHE ([11]; 140 g/Ha): 0%
Preemergence herbicidal activity AVEFA (wild oats (Avena fatua) [12]; 140 g/Ha): 30%
Postemergence herbicidal activity POLCO ([13]; 125 ppm): 20%
Postemergence herbicidal activity AMARE ([14]; 125 ppm): 75%
Postemergence herbicidal activity SORBI ([15]; 125 ppm): 50%
Postemergence herbicidal activity CHEAL ([16]; 125 ppm): 40%
Postemergence herbicidal activity VIOTR (viola (Viola tricolor); 125 ppm): 50%
Postemergence herbicidal activity XANST ([17]; 125 ppm): 0%
Postemergence herbicidal activity ABUTH ([18]; 125 ppm): 10%
Postemergence herbicidal activity SETFA ([19]; 125 ppm): 75%
Postemergence herbicidal activity ALOMY ([20]; 125 ppm): 60%
Postemergence herbicidal activity IPOHE ([21]; 125 ppm): 20%
Postemergence herbicidal activity STEME ([22]; 125 ppm): 60%
Postemergence herbicidal activity AVEFA (wild oats (Avena fatua) [23]; 125 ppm): 50%

Compound: COc1cc(OC)n2nc(NS(=O)(=O)c3c(I)ccnc3OC)nc2n1 [Compound 17]
Preemergence herbicidal activity AMARE ([1]; 17.5 g/Ha): 100%
Preemergence herbicidal activity DIGSA ([2]; 17.5 g/Ha): 100%
Preemergence herbicidal activity ECHCG ([3]; 17.5 g/Ha): 100%
Preemergence herbicidal activity SORBI ([4]; 17.5 g/Ha): 99%
Preemergence herbicidal activity CHEAL ([5]; 17.5 g/Ha): 100%
Preemergence herbicidal activity EPHHL ([6]; 17.5 g/Ha): 100%
Preemergence herbicidal activity XANST ([7]; 17.5 g/Ha): 65%
Preemergence herbicidal activity ABUTH ([8]; 17.5 g/Ha): 75%
Preemergence herbicidal activity SETFA ([9]; 17.5 g/Ha): 100%
Preemergence herbicidal activity ALOMY ([10]; 17.5 g/Ha): 99%
Preemergence herbicidal activity IPOHE ([11]; 17.5 g/Ha): 60%
Preemergence herbicidal activity AVEFA (wild oats (Avena fatua) [12]; 17.5 g/Ha): 90%
Postemergence herbicidal activity POLCO ([13]; 15.6 ppm): 75%
Postemergence herbicidal activity AMARE ([14]; 15.6 ppm): 100%
Postemergence herbicidal activity SORBI ([15]; 15.6 ppm): 90%
Postemergence herbicidal activity CHEAL ([16]; 15.6 ppm): 100%
Postemergence herbicidal activity VIOTR (viola (Viola tricolor); 15.6 ppm): 98%
Postemergence herbicidal activity XANST ([17]; 15.6 ppm): 90%
Postemergence herbicidal activity ABUTH ([18]; 15.6 ppm): 78%
Postemergence herbicidal activity SETFA ([19]; 15.6 ppm): 90%
Postemergence herbicidal activity ALOMY ([20]; 15.6 ppm): 90%
Postemergence herbicidal activity IPOHE ([21]; 15.6 ppm): 70%
Postemergence herbicidal activity STEME ([22]; 15.6 ppm): 75%
Postemergence herbicidal activity AVEFA (wild oats (Avena fatua) [23]; 15.6 ppm): 90%

Compound: COc1cc(OC)n2nc(NS(=O)(=O)c3c(C(F)(F)C(F)(F)F)ccnc3OC)nc2n1 [Compound 18]
Preemergence herbicidal activity AMARE ([1]; 35 g/Ha): 100%
Preemergence herbicidal activity DIGSA ([2]; 35 g/Ha): 100%
Preemergence herbicidal activity ECHCG ([3]; 35 g/Ha): 90%
Preemergence herbicidal activity SORBI ([4]; 35 g/Ha): 100%
Preemergence herbicidal activity CHEAL ([5]; 35 g/Ha): 100%
Preemergence herbicidal activity EPHHL ([6]; 35 g/Ha): 70%
Preemergence herbicidal activity XANST ([7]; 35 g/Ha): 70%
Preemergence herbicidal activity ABUTH ([8]; 35 g/Ha): 95%
Preemergence herbicidal activity SETFA ([9]; 35 g/Ha): 100%
Preemergence herbicidal activity ALOMY ([10]; 35 g/Ha): 100%
Preemergence herbicidal activity IPOHE ([11]; 35 g/Ha): 90%
Preemergence herbicidal activity AVEFA (wild oats (Avena fatua) [12]; 35 g/Ha): 70%
Postemergence herbicidal activity POLCO ([13]; 31.3 ppm): 60%
Postemergence herbicidal activity AMARE ([14]; 31.3 ppm): 100%
Postemergence herbicidal activity SORBI ([15]; 31.3 ppm): 90%
Postemergence herbicidal activity CHEAL ([16]; 31.3 ppm): 95%
Postemergence herbicidal activity VIOTR (viola (Viola tricolor); 31.3 ppm): 80%
Postemergence herbicidal activity XANST ([17]; 31.3 ppm): 85%
Postemergence herbicidal activity ABUTH ([18]; 31.3 ppm): 90%
Postemergence herbicidal activity SETFA ([19]; 31.3 ppm): 85%
Postemergence herbicidal activity ALOMY ([20]; 31.3 ppm): 65%
Postemergence herbicidal activity IPOHE ([21]; 31.3 ppm): 70%
Postemergence herbicidal activity STEME ([22]; 31.3 ppm): 100%
Postemergence herbicidal activity AVEFA (wild oats (Avena fatua) [23]; 31.3 ppm): 50%

Compound: CCOc1nccc(C(F)(F)F)c1S(=O)(=O)Nc1nc2nc(OC)cc(OC)n2n1 [Compound 19]
Preemergence herbicidal activity AMARE ([1]; 35 g/Ha): 100%
Preemergence herbicidal activity DIGSA ([2]; 35 g/Ha): 80%
Preemergence herbicidal activity ECHCG ([3]; 35 g/Ha): 70%
Preemergence herbicidal activity SORBI ([4]; 35 g/Ha): 60%
Preemergence herbicidal activity CHEAL ([5]; 35 g/Ha): 100%
Preemergence herbicidal activity EPHHL ([6]; 35 g/Ha): 50%
Preemergence herbicidal activity XANST ([7]; 35 g/Ha): 85%
Preemergence herbicidal activity ABUTH ([8]; 35 g/Ha): 80%
Preemergence herbicidal activity SETFA ([9]; 35 g/Ha): 30%
Preemergence herbicidal activity ALOMY ([10]; 35 g/Ha): 100%
Preemergence herbicidal activity IPOHE ([11]; 35 g/Ha): 50%
Preemergence herbicidal activity AVEFA (wild oats (Avena fatua) [12]; 35 g/Ha): 60%
Postemergence herbicidal activity POLCO ([13]; 15.6 ppm): 90%
Postemergence herbicidal activity AMARE ([14]; 15.6 ppm): 90%
Postemergence herbicidal activity SORBI ([15]; 15.6 ppm): 50%
Postemergence herbicidal activity CHEAL ([16]; 15.6 ppm): 95%
Postemergence herbicidal activity VIOTR (viola (Viola tricolor); 15.6 ppm): 90%
Postemergence herbicidal activity XANST ([17]; 15.6 ppm): 90%
Postemergence herbicidal activity ABUTH ([18]; 15.6 ppm): 75%
Postemergence herbicidal activity SETFA ([19]; 15.6 ppm): 60%
Postemergence herbicidal activity ALOMY ([20]; 15.6 ppm): 80%
Postemergence herbicidal activity IPOHE ([21]; 15.6 ppm): 75%
Postemergence herbicidal activity STEME ([22]; 15.6 ppm): 95%
Postemergence herbicidal activity AVEFA (wild oats (Avena fatua) [23]; 15.6 ppm): 50%
